Structures can show the parent of a compound that is named as a salt.
Each molecule was assayed against catalytic domain of human PARP14 (Homo sapiens (Human), UniProt Q460N5) (assay: Enzymatic assay for inhibition of PARP14 (DELFIA, auto-modification with biotin-NAD)). Conditions: auto-modification of PARP14 by biotin-NAD, 50 nM PARP14, 3 μM biotin-NAD.
Type: biochemical
Outline: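 DELFIA auto-modification read-out: europium-streptavidin bound to biotin-NAD incorporated onto nickel-captured His-TEV PARP14 catalytic domain. Compound preincubated 30 min, then 50 nM enzyme with 3 μM biotin-NAD reacted 3 h, all at 25 °C, pH 8, then NAD quench. Percent inhibition normalized to rucaparib/DMSO wells, fitted (4- or 3-parameter) for IC50.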

Chain of catalytic domain of human PARP14 (Q460N5 1611-1801): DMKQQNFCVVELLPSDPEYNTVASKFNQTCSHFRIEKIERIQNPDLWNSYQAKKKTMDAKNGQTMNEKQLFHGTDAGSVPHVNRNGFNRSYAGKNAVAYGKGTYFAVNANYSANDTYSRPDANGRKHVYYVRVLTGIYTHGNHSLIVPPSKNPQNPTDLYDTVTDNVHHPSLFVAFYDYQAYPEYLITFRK

IC50 [nM]	SMILES
< 1000	O=c1[nH]c(CS[C@H]2CC[C@H](O)CC2)nc2cc(Nc3cccnc3)ccc12 [Example 101, 2-(((trans-4-Hydroxycyclohexyl)thio)methyl)-7-(pyridin-3-ylamino)quinazolin-4(3H)-one]
< 1000	O=c1[nH]c(CS[C@H]2CC[C@@H](CO)CC2)nc2cc(NC3CCCCC3)ccc12 [Example 137, 7-(Cyclohexylamino)-2-(((cis-4-(hydroxymethyl)cyclohexyl)thio)methyl) quinazolin-4(3H)-one]
< 1000	Cc1ccc(F)c2c(=O)[nH]c(CSC3CCC(O)CC3)nc12 (stereo not drawn) [Example 56, 5-Fluoro-2-(((4-hydroxycyclohexyl)thio)methyl)-8-methylquinazolin-4(3H)-one]
> 10000	Cc1cccc2c(=O)[nH]c(CSC3CNC3)nc12 [Example 25, 2-((Azetidin-3-ylthio)methyl)-8-methylquinazolin-4(3H)-one Trifluoroacetate]
< 1000	CN1CCC(COc2cc(F)c3c(=O)[nH]c(CSC4CCOCC4)nc3c2)CC1 [Example 415]
1000 to 10000	O=c1[nH]c(CSC2CCOCC2)nc2cc(NC3CCOCC3)ccc12 [Example 114, 7-((Tetrahydro-2H-pyran-4-yl)amino)-2-(((tetrahydro-2H-pyran-4-yl)thio)methyl)quinazolin-4(3H)-one]
> 10000	Cc1ccnc2c(=O)[nH]c(CSC3CCOCC3)nc12 [Example 41, 8-Methyl-2-(((tetrahydro-2H-pyran-4-yl)thio)methyl)pyrido[3,2-d]pyrimidin-4(3H)-one]
1000 to 10000	CO[C@H]1CC[C@@H](SCc2nc3c(C)cccc3c(=O)[nH]2)CC1 [Example 27, 2-((((cis)-4-Methoxycyclohexyl)thio)methyl)-8-methylquinazolin-4(3H)-one]
< 1000	CC(=O)N[C@H]1CC[C@@H](SCc2nc3cc(OCC4CC4)cc(F)c3c(=O)[nH]2)CC1 [Example 329, N-((cis)-4-(((7-(Cyclopropylmethoxy)-5-fluoro-4-oxo-3,4-dihydroquinazolin-2-yl)methyl)thio)cyclohexyl)acetamide]
< 1000	O=c1[nH]c(CSC2CCOCC2)nc2nc(NC3CCCC3)ccc12 [Example 186, 7-(cyclopentylamino)-2-(((tetrahydro-2H-pyran-4-yl)thio)methyl)pyrido[2,3-d]pyrimidin-4(3H)-one]
< 1000	O=c1[nH]c(CS[C@H]2CC[C@H](CO)CC2)nc2cc(NC3CCCC3)ccc12 [Example 180, 7-(cyclopentylamino)-2-((((1R,4R)-4-(hydroxymethyl)cyclohexyl)thio)methyl)quinazolin-4(3H)-one]
< 1000	CC(=O)N1CCC(COc2cc(F)c3c(=O)[nH]c(CS[C@H]4CC[C@@](C)(O)CC4)nc3c2)CC1 [Example 417]
< 1000	O=c1[nH]c(CSC2CCOCC2)nc2cc(OCC3CCN(CC(F)F)CC3)cc(F)c12 [Example 300, 7-((1-(2,2-Difluoroethyl)piperidin-4-yl)methoxy)-5-fluoro-2-(((tetrahydro-2H-pyran-4-yl)thio)methyl)quinazolin-4(3H)-one]
> 10000	Cc1cccc2c(=O)[nH]c(CS[C@H]3C[C@H](OCc4ccccc4)C3)nc12 [Example 38, 2-((((trans)-3-(Benzyloxy)cyclobutyl)thio)methyl)-8-methylquinazolin-4(3H)-one]
1000 to 10000	O=c1[nH]c(CSC2CCOCC2)nc2cc(N3CCOCC3)ccc12 [Example 111, 7-Morpholino-2-(((tetrahydro-2H-pyran-4-yl)thio)methyl)quinazolin-4(3H)-one]
< 1000	O=c1[nH]c(CSC2CCOCC2)nc2cc(NC[C@H]3CCOC3)c(F)c(F)c12 [Example 323b, (R)-5,6-Difluoro-2-(((tetrahydro-2H-pyran-4-yl)thio)methyl)-7-(((tetrahydrofuran-3-yl)methyl)amino)quinazolin-4(3H)-one]
< 1000	Cc1cccc2c(=O)[nH]c(CSC3CCN(Cc4cnc5ccccn45)CC3)nc12 [Example 152, 2-(((1-(Imidazo[1,2-a]pyridin-3-ylmethyl)piperidin-4-yl)thio)methyl)-8-methylquinazolin-4(3H)-one trifluoroacetate]
< 1000	O=c1[nH]c(CS[C@H]2CC[C@H](O)CC2)nc2cc(OCC3CCCC3)cc(F)c12 [Example 314, 7-(Cyclopentylmethoxy)-5-fluoro-2-(((trans-4-hydroxycyclohexyl)thio)methyl)quinazolin-4(3H)-one]
< 1000	O=c1[nH]c(CSC2CCOCC2)nc2cc(OCC3CC3)ccc12 [Example 219, 7-(Cyclopropylmethoxy)-2-(((tetrahydro-2H-pyran-4-yl)thio)methyl)quinazolin-4(3H)-one]
1000 to 10000	Cc1cccc2c(=O)[nH]c(CS[C@H]3CC[C@@H](CO)CC3)nc12 [Example 63, 2-(((cis-4-(Hydroxymethyl)cyclohexyl)thio)methyl)-8-methylquinazolin-4(3H)-one]
1000 to 10000	COc1cccc(Nc2ccc3c(=O)[nH]c(CSC4CCOCC4)nc3c2)c1 [Example 83, 7-((3-Methoxyphenyl)amino)-2-(((tetrahydro-2H-pyran-4-yl)thio)methyl)quinazolin-4(3H)-one]
< 1000	Cc1cccc2c(=O)[nH]c(CSC3CCN(S(C)(=O)=O)CC3)nc12 [Example 174, 8-Methyl-2-(((1-(methylsulfonyl)piperidin-4-yl)thio)methyl)quinazolin-4(3H)-one]
< 1000	CC(=O)N1CCCC(COc2cc(F)c3c(=O)[nH]c(CSC4CCOCC4)nc3c2)C1 (stereo not drawn) [Example 401]
< 1000	Cc1cc(Nc2ccc3c(=O)[nH]c(CSC4CCOCC4)nc3c2)on1 [Example 192, 7-((3-methylisoxazol-5-yl)amino)-2-(((tetrahydro-2H-pyran-4-yl)thio)methyl)quinazolin-4(3H)-one]
< 1000	O=c1[nH]c(CS[C@H]2CC[C@@H](O)CC2)nc2cc(NC3CCCC3)ccc12 [Example 103, 7-(Cyclopentylamino)-2-(((cis-4-hydroxycyclohexyl)thio)methyl) quinazolin-4(3H)-one]
1000 to 10000	CC(=O)Nc1cccc(CN2CCC(SCc3nc4c(C)cccc4c(=O)[nH]3)CC2)c1 [Example 150, N-(3-((4-(((8-Methyl-4-oxo-3,4-dihydroquinazolin-2-yl)methyl)thio)piperidin-1-yl)methyl)phenyl)acetamide trifluoroacetate]
1000 to 10000	O=c1[nH]c(CSC2CCOCC2)nc2cc(NC3CCNCC3)ccc12 [Example 129, 7-(Piperidin-4-ylamino)-2-(((tetrahydro-2H-pyran-4-yl)thio)methyl) quinazolin-4(3H)-one]
< 1000	O=C(CO)N1CCC(SCc2nc3cc(NC4CCCC4)cc(F)c3c(=O)[nH]2)CC1 [Example 214, 7-(Cyclopentylamino)-5-fluoro-2-(((1-(2-hydroxyacetyl)piperidin-4-yl)thio)methyl)quinazolin-4(3H)-one]
< 1000	CN1CCC(SCc2nc3cc(NC4CCCC4)cc(F)c3c(=O)[nH]2)CC1 [Example 246, 7-(Cyclopentylamino)-5-fluoro-2-(((1-methylpiperidin-4-yl)thio)methyl)quinazolin-4(3H)-one]

SMILES	IC50 [nM]
O=c1[nH]c(CSC2CCNCC2)nc2cc(NC3CCC3)cc(F)c12 [Example 177, 7-(Cyclobutylamino)-5-fluoro-2-((piperidin-4-ylthio)methyl)quinazolin-4(3H)-one Hydrochloride]	< 1000
